Laboratory results taken from patent publication US9796704B2, “Substituted quinazolines as receptor-type kinase inhibitors” (Symphony Evolution, Inc., priority 2002, dated 2017).

The compounds below were run against EGFR (Homo sapiens (Human), UniProt P00533) (assay: EGFR kinase inhibition, luciferase-coupled chemiluminescent assay (LCCA)). Details: read-out: EGFR IC50.
EGFR, sequence (P00533 672-1210): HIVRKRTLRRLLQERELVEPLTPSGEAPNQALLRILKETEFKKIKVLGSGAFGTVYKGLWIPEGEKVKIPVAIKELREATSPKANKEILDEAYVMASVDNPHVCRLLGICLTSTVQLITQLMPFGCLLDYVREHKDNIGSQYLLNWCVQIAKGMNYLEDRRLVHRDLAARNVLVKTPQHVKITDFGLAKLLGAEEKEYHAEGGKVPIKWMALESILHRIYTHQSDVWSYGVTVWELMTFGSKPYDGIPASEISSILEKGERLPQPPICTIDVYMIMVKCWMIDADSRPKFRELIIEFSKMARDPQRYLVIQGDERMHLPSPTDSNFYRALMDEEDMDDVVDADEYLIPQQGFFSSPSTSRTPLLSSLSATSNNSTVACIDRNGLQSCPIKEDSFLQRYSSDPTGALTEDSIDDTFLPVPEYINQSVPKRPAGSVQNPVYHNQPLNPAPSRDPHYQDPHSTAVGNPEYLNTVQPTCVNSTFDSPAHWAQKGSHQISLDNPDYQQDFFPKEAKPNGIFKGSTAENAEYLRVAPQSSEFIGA
Method: Kinase activity and compound inhibition are investigated using one or more of the three assay formats described below. The ATP concentrations are selected near its Michaelis-Menten constant (KM) for each individual kinase. Dose-response experiments are performed at ten different inhibitor concentrations in a 384-well plate format. […] Typically H is close to unity.
In the LCCA assays, kinase activity is measured by the ATP consumption that is accurately measured by luciferase-coupled chemiluminescence. Greiner 384-well white clear bottom medium binding plates are used for LCCA. Briefly the kinase reaction is initiated by mixing compounds, ATP and kinases in a 20 μL volume. At the end of the kinase reaction, a 20 μL luciferase-luciferin mix is added and the chemiluminescent signal is read on a Wallac Victor^2 reader.
In the case of `COc1cc2c(Nc3ccc(Cl)c(Cl)c3F)ncnc2cc1OC[C@@H]1CN2CCCC[C@@H]2C(=O)N1` [Example 50, (3S,9aR)-3-({[4-[(3,4-dichloro-2-fluorophenyl)amino]-6-(methyloxy)quinazolin-7-yl]oxy}methyl)hexahydro-2H-pyrido[1,2-a]pyrazin-1(6H)-one], the IC50 is reported as 50 to 1000 nM.
In the case of `C=C1CO[C@@H]2[C@@H](Oc3cc4ncnc(Nc5ccc(Br)c(Cl)c5)c4cc3OC)CO[C@H]12` [Example 81, 1,4:3,6-dianhydro-2-O-[4-[(4-bromo-3-chlorophenyl)amino]-6-(methyloxy)quinazolin-7-yl]-5-deoxy-5-methylidene-D-xylo-hexitol], the IC50 is reported as < 50 nM.
For `COc1cc2c(Nc3ccc(Br)c(Cl)c3)ncnc2cc1O[C@H]1CO[C@@H]2[C@@H](OC)[C@@H](OC)O[C@@H]21` [Example 82, methyl 3,6-anhydro-5-O-[4-[(4-bromo-3-chlorophenyl)amino]-6-(methyloxy)quinazolin-7-yl]-2-O-methyl-beta-L-idofuranoside], the IC50 was < 50 nM.
In the case of `COc1cc2c(Nc3ccc(Cl)c(Cl)c3F)ncnc2cc1OCC1CCC2CCCCN2C1` (centres unmarked) [Example 83, N-(3,4-dichloro-2-fluorophenyl)-6-(methyloxy)-7-[(octahydro-2H-quinolizin-3-ylmethyl)oxy]quinazolin-4-amine], the IC50 is reported as < 50 nM.
In the case of `COc1cc2c(Nc3ccc(F)cc3Cl)ncnc2cc1O[C@@H]1CO[C@@H]2[C@H]1OC[C@H]2F` [Example 85, 1,4:3,6-dianhydro-5-O-[4-[(2-chloro4-fluorophenyl)amino]-6-(methyloxy)quinazolin-7-yl]-2-deoxy-2-fluoro-D-iditol], the IC50 is reported as < 50 nM.
For `COc1cc2c(Nc3ccc(F)cc3Br)ncnc2cc1O[C@@H]1CO[C@@H]2[C@H]1OC[C@H]2F` [Example 86, 1,4:3,6-dianhydro-5-O-[4-[(2-bromo-4-fluorophenyl)amino]-6-(methyloxy)quinazolin-7-yl]-2-deoxy-2-fluoro-D-iditol], the IC50 was < 50 nM.
`COc1cc2c(Nc3cccc(Cl)c3F)ncnc2cc1O[C@@H]1CO[C@@H]2[C@H]1OC[C@H]2F` [Example 88, 1,4:3,6-dianhydro-5-O-[4-[(3-chloro-2-fluorophenyl)amino]-6-(methyloxy)quinazolin-7-yl]-2-deoxy-2-fluoro-D-iditol] was tested, and the IC50 was < 50 nM.
For `COc1cc2c(Nc3cc(F)ccc3F)ncnc2cc1O[C@@H]1CO[C@@H]2[C@H]1OC[C@H]2F` [Example 91, 1,4:3,6-dianhydro-2-deoxy-5-O-[4-[(2,5-difluorophenyl)amino]-6-(methyloxy)quinazolin-7-yl]-2-fluoro-D-iditol], the IC50 was < 50 nM.
With `COc1cc2c(Nc3cc(Cl)ccc3F)ncnc2cc1O[C@@H]1CO[C@@H]2[C@H]1OC[C@H]2F` [Example 93, 1,4:3,6-dianhydro-5-O-[4-[(5-chloro-2-fluorophenyl)amino]-6-(methyloxy)quinazolin-7-yl]-2-deoxy-2-fluoro-D-iditol] the IC50 was < 50 nM.
`COc1cc2c(Nc3ccc(F)c(Cl)c3)ncnc2cc1O[C@@H]1CO[C@@H]2[C@H]1OC[C@H]2F` [Example 95, 1,4:3,6-dianhydro-5-O-[4-[(3-chloro-4-fluorophenyl)amino]-6-(methyloxy)quinazolin-7-yl]-2-deoxy-2-fluoro-D-iditol] was tested, and the IC50 was < 50 nM.
For `COc1cc2c(Nc3c(F)cc(F)cc3F)ncnc2cc1O[C@@H]1CO[C@@H]2[C@H]1OC[C@H]2F` [Example 100, 1,4:3,6-dianhydro-2-deoxy-2-fluoro-5-O-{6-(methyloxy)-4-[(2,4,6-trifluorophenyl)amino]quinazolin-7-yl}-D-iditol], the IC50 was < 50 nM.
`COc1cc2c(Nc3cc(F)c(Oc4ccc(Cl)cc4)c(F)c3)ncnc2cc1O[C@@H]1CO[C@@H]2[C@H]1OC[C@H]2F` [Example 101, 1,4:3,6-dianhydro-5-O-[4-({4-[(4-chlorophenyl)oxy]-3,5-difluorophenyl}amino)-6-(methyloxy)quinazolin-7-yl]-2-deoxy-2-fluoro-D-iditol] was tested, and the IC50 was < 50 nM.
`COc1cc2c(Nc3ccc(Br)c(Cl)c3F)ncnc2cc1O[C@@H]1CO[C@@H]2[C@H]1OC[C@H]2F` [Example 102, 1,4:3,6-dianhydro-5-O-[4-[(4-bromo-3-chloro-2-fluorophenyl)amino]-6-(methyloxy)quinazolin-7-yl]-2-deoxy-2-fluoro-D-iditol] was tested, and the IC50 was < 50 nM.
In the case of `COc1cc2c(Nc3cccc(Cl)c3C)ncnc2cc1O[C@@H]1CO[C@@H]2[C@H]1OC[C@H]2F` [Example 110, 1,4:3,6-dianhydro-5-O-[4-[(3-chloro-2-methylphenyl)amino]-6-(methyloxy)quinazolin-7-yl]-2-deoxy-2-fluoro-D-iditol], the IC50 is reported as < 50 nM.
For `COc1cc2c(Nc3ccc(F)c(F)c3)ncnc2cc1O[C@@H]1CO[C@@H]2[C@H]1OC[C@H]2F` [Example 111, 1,4:3,6-dianhydro-2-deoxy-5-O-[4-[(3,4-difluorophenyl)amino]-6-(methyloxy)quinazolin-7-yl]-2-fluoro-D-iditol], the IC50 was < 50 nM.
For `COc1cc2c(Nc3ccccc3Cl)ncnc2cc1O[C@@H]1CO[C@@H]2[C@H]1OC[C@H]2F` [Example 112, 1,4:3,6-dianhydro-5-O-[4-[(2-chlorophenyl)amino]-6-(methyloxy)quinazolin-7-yl]-2-deoxy-2-fluoro-D-iditol], the IC50 was < 50 nM.
`COc1cc2c(Nc3ccccc3F)ncnc2cc1O[C@@H]1CO[C@@H]2[C@H]1OC[C@H]2F` [Example 113, 1,4:3,6-dianhydro-2-deoxy-2-fluoro-5-O-[4-[(2-fluorophenyl)amino]-6-(methyloxy)quinazolin-7-yl]-D-iditol] was tested, and the IC50 was < 50 nM.
In the case of `COc1cc2c(Nc3ccc(Cl)cc3)ncnc2cc1O[C@@H]1CO[C@@H]2[C@H]1OC[C@H]2F` [Example 116, 1,4:3,6-dianhydro-5-O-[4-[(4-chlorophenyl)amino]-6-(methyloxy)quinazolin-7-yl]-2-deoxy-2-fluoro-D-iditol], the IC50 is reported as < 50 nM.
For `COc1cc2c(Nc3ccc(Cl)c(C(F)(F)F)c3)ncnc2cc1O[C@@H]1CO[C@@H]2[C@H]1OC[C@H]2F` [Example 121, 1,4:3,6-dianhydro-5-O-[4-{[4-chloro-3-(trifluoromethyl)phenyl]amino}-6-(methyloxy)quinazolin-7-yl]-2-deoxy-2-fluoro-D-iditol], the IC50 was < 50 nM.
With `COc1cc2c(Nc3cccc(C(F)(F)F)c3F)ncnc2cc1O[C@@H]1CO[C@@H]2[C@H]1OC[C@H]2F` [Example 123, 1,4:3,6-dianhydro-2-deoxy-2-fluoro-5-O-[4-{[2-fluoro-3-(trifluoromethyl)phenyl]amino}-6-(methyloxy)quinazolin-7-yl]-D-iditol] the IC50 was < 50 nM.
In the case of `COc1cc2c(Nc3cc(C(F)(F)F)ccc3Br)ncnc2cc1O[C@@H]1CO[C@@H]2[C@H]1OC[C@H]2F` [Example 124, 1,4:3,6-dianhydro-5-O-[4-{[2-bromo-5-(trifluoromethyl)phenyl]amino}-6-(methyloxy)quinazolin-7-yl]-2-deoxy-2-fluoro-D-iditol], the IC50 is reported as < 50 nM.
In the case of `COc1cc2c(Nc3ccc(F)cc3C(F)(F)F)ncnc2cc1O[C@@H]1CO[C@@H]2[C@H]1OC[C@H]2F` [Example 126, 1,4:3,6-dianhydro-2-deoxy-2-fluoro-5-O-[4-{[4-fluoro-2-(trifluoromethyl)phenyl]amino}-6-(methyloxy)quinazolin-7-yl]-D-iditol], the IC50 is reported as < 50 nM.
For `COc1cc2c(Nc3ccccc3Br)ncnc2cc1O[C@@H]1CO[C@@H]2[C@H]1OC[C@H]2F` [Example 128, 1,4:3,6-dianhydro-5-O-[4-[(2-bromophenyl)amino]-6-(methyloxy)quinazolin-7-yl]-2-deoxy-2-fluoro-D-iditol], the IC50 was < 50 nM.
In the case of `COc1cc2c(Nc3ccc(Br)cc3)ncnc2cc1O[C@@H]1CO[C@@H]2[C@H]1OC[C@H]2F` [Example 130, 1,4:3,6-dianhydro-5-O-[4-[(4-bromophenyl)amino]-6-(methyloxy)quinazolin-7-yl]-2-deoxy-2-fluoro-D-iditol], the IC50 is reported as < 50 nM.
`COc1cc2c(Nc3ccc(C)c(Br)c3)ncnc2cc1O[C@@H]1CO[C@@H]2[C@H]1OC[C@H]2F` [Example 131, 1,4:3,6-dianhydro-5-O-[4-[(3-bromo-4-methylphenyl)amino]-6-(methyloxy)quinazolin-7-yl]-2-deoxy-2-fluoro-D-iditol] was tested, and the IC50 was < 50 nM.
In the case of `COc1cc2c(Nc3cc(C)cc(C)c3)ncnc2cc1O[C@@H]1CO[C@@H]2[C@H]1OC[C@H]2F` [Example 133, 1,4:3,6-dianhydro-2-deoxy-5-O-[4-[(3,5-dimethylphenyl)amino]-6-(methyloxy)quinazolin-7-yl]-2-fluoro-D-iditol], the IC50 is reported as < 50 nM.
With `COc1cc(Nc2ncnc3cc(O[C@@H]4CO[C@@H]5[C@H]4OC[C@H]5F)c(OC)cc23)c(OC)cc1Cl` [Example 136, 1,4:3,6-dianhydro-5-O-[4-{[4-chloro-2,5-bis(methyloxy)phenyl]amino}-6-(methyloxy)quinazolin-7-yl]-2-deoxy-2-fluoro-D-iditol] the IC50 was < 50 nM.
In the case of `COc1cc2c(Nc3ccc(Cl)c(Cl)c3)ncnc2cc1OCC1CNCCO1` (centres unmarked) [Example 144, N-(3,4-dichlorophenyl)-6-(methyloxy)-7-[(morpholin-2-ylmethyl)oxy]quinazolin-4-amine], the IC50 is reported as < 50 nM.
`COc1cc2c(Nc3ccc(Cl)c(Cl)c3)ncnc2cc1OCC1CNCCCO1` (centres unmarked) [Example 152, N-(3,4-dichlorophenyl)-6-(methyloxy)-7-[(1,4-oxazepan-2-ylmethyl)oxy]quinazolin-4-amine] was tested, and the IC50 was < 50 nM.
For `COc1cc2c(Nc3ccc(Cl)c(Cl)c3)ncnc2cc1OCc1cccc2nsnc12` [Example 159, 7-[(2,1,3-benzothiadiazol-4-ylmethyl)oxy]-N-(3,4-dichlorophenyl)-6-(methyloxy)quinazolin-4-amine], the IC50 was < 50 nM.
With `COc1cc2c(Nc3ccc(Cl)c(Cl)c3)ncnc2cc1OCc1nc2ccccc2s1` [Example 162, 7-[(1,3-benzothiazol-2-ylmethyl)oxy]-N-(3,4-dichlorophenyl)-6-(methyloxy)quinazolin-4-amine] the IC50 was < 50 nM.
With `COc1cc2c(Nc3ccc(Cl)c(Cl)c3)ncnc2cc1OCc1cnn(-c2ccccc2)c1` [Example 165, N-(3,4-dichlorophenyl)-6-(methyloxy)-7-{[(1-phenyl-1H-pyrazol-4-yl)methyl]oxy}quinazolin-4-amine] the IC50 was < 50 nM.
